Target: Beta-secretase 1 (Homo sapiens, UniProt P56817)
Test: BACE-1 Inhibiiton Assay
Protocol: Beta-Secretase inhibition evaluations were carried out using a fluorescence resonance energy transfer (FRET) assay kit supplied by PanVera (kit P2985).

Chain of Beta-secretase 1 (P56817 whole entry): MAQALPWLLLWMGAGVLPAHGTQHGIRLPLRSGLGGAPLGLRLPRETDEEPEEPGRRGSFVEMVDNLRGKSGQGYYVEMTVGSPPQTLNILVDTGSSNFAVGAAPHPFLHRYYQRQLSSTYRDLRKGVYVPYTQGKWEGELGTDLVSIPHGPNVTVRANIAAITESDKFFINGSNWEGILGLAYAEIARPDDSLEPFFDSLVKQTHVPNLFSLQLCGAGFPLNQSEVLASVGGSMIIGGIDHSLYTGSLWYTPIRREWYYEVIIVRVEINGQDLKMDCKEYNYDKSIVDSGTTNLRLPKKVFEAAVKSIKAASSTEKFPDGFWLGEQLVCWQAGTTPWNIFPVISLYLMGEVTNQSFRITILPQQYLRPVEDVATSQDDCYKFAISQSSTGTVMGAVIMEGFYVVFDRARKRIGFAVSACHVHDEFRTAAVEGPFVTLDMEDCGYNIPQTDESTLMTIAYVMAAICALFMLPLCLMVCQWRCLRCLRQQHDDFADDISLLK

| IC50 [µM] | SMILES |
| --- | --- |
| 4.76 | COc1ccc(-c2nc(SCC(=O)Nc3nc(-c4ccccc4)cs3)[nH]c(=O)c2C#N)cc1 [B51] |
| 0.31 | O=C(NCc1ccc2c(c1)OCO2)c1cnc2cc(S(=O)(=O)Nc3cccc(C(F)(F)F)c3)ccc2c1O [B53] |
